pEC50: −log10 of the molar value.

The assay addresses T1, STAT6 (Homo sapiens, UniProt P42226).
T1 construct: stably transfected HaCaT keratinocyte cell line, which expresses NanoLuc luciferase reporter gene under the transcriptional control of the STAT6 responsive promoter; endogenous in cells; host or cells: HaCaT keratinocyte reporter cell line (stably transfected with a NanoLuc reporter)
T1 sequence (P42226 1-847): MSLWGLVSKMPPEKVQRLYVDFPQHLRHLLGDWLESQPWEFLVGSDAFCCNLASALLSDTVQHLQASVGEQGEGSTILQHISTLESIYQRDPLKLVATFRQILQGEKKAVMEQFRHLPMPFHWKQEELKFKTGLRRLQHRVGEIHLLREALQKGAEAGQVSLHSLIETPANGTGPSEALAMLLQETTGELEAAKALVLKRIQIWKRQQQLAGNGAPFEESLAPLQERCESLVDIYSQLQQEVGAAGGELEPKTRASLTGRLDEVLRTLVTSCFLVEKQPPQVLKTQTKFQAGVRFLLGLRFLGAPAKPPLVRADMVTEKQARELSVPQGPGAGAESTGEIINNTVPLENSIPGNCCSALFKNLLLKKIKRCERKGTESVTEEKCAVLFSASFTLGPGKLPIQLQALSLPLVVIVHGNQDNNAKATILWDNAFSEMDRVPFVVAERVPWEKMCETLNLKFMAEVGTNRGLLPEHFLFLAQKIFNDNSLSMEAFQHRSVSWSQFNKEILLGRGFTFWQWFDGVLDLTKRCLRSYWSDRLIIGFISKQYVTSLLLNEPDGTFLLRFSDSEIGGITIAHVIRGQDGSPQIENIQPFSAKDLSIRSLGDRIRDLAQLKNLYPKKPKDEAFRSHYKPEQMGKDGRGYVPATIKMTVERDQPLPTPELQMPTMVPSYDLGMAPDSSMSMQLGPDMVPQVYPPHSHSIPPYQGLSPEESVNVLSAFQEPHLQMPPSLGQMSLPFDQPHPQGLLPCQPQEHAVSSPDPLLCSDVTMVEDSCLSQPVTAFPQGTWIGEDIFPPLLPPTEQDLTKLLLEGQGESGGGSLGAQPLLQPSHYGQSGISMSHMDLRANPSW
Nature of the assay: STAT6 Reporter Luciferase Assay (IL-13 stimulated HaCaT keratinocyte NanoLuc reporter cells). It counts as cell-based. The settings on record: IL-13 stimulated HaCaT STAT6 NanoLuc reporter cells; read-out: Reporter EC50. The essentials: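 HaCaT IL-13Ra2-promoter NanoLuc reporter; cpd 2 h 37 °C in DMEM/2% HI FBS; IL-13 0.12 nM final, 4 h; Nano-Glo luminescence.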
A word on the pEC50: it is −log10 of the EC50, conventionally taken in molar units. `CC(C)n1nc(C(=O)NCc2ccc(NC(=O)N(C)C)cc2)c2c1CCN(c1ccc(C(=O)N3Cc4ccc(C#N)cc4C3)cn1)C2` [Example 411, 5-(5-(5-cyanoisoindoline-2-carbonyl)pyridin-2-yl)-N-(4-(3,3-dimethylureido)benzyl)-1-isopropyl-4,5,6,7-tetrahydro-1H-pyrazolo[4,3-c]pyridine-3-carboxamide]: the pEC50 was 8.10.
For the compound `CC(C)n1nc(C(=O)NCc2ccc(NC(=O)N(C)C)cc2)c2c1CCN(c1ccc(C(=O)N3CCc4cncnc4C3)cn1)C2` [Example 433, N-(4-(3,3-dimethylureido)benzyl)-1-isopropyl-5-(5-(5,6,7,8-tetrahydropyrido[3,4-d]pyrimidine-7-carbonyl)pyridin-2-yl)-4,5,6,7-tetrahydro-1H-pyrazolo[4,3-c]pyridine-3-carboxamide], the pEC50 is 6.56.
As to `CNC(=O)C1CCCN1C(=O)c1ccc(N2CCc3c(c(C(=O)NCc4ccc(NC(=O)N(C)C)cc4)nn3C(C)C)C2)nc1` (racemic) [Example 245, rac-(R)-N-(4-(3,3-dimethylureido)benzyl)-1-isopropyl-5-(5-(2-(methylcarbamoyl)pyrrolidine-1-carbonyl)pyridin-2-yl)-4,5,6,7-tetrahydro-1H-pyrazolo[4,3-c]pyridine-3-carboxamide], the pEC50 is 5.68.
Consider `CC(=O)N1CCN(C(=O)c2ccc(N3CCc4c(c(C(=O)NCc5ccc(NC(=O)N(C)C)cc5)nn4C(C)C)C3)nc2)CC1` [Example 224, 5-(5-(4-acetylpiperazine-1-carbonyl)pyridin-2-yl)-N-(4-(3,3-dimethylureido)benzyl)-1-isopropyl-4,5,6,7-tetrahydro-1H-pyrazolo[4,3-c]pyridine-3-carboxamide], for which the pEC50 was 6.79.
In the case of `CC(C)n1nc(C(=O)NCc2ccc(NC(=O)N3CC[C@@H](N(C)C)C3)c(F)c2)c2c1[C@@H](C)CN(c1ccc(C(=O)N(C)C)cc1)C2` [Example 678, (S)-N-(4-((R)-3-(dimethylamino)pyrrolidine-1-carboxamido)-3-fluorobenzyl)-5-(4-(dimethylcarbamoyl)phenyl)-1-isopropyl-7-methyl-4,5,6,7-tetrahydro-1H-pyrazolo[4,3-c]pyridine-3-carboxamide] it was 8.52; in that of `CC(C)n1nc(C(=O)NCc2ccc(NC(=O)N3CCC(C)(N(C)C)C3)cc2)c2c1[C@@H](C)CN(c1ccc(C(=O)N(C)C)cc1)C2` (stereo partly drawn) [Example 752, (7S)-N-(4-(3-(dimethylamino)-3-methylpyrrolidine-1-carboxamido)benzyl)-5-(4-(dimethylcarbamoyl)phenyl)-1-isopropyl-7-methyl-4,5,6,7-tetrahydro-1H-pyrazolo[4,3-c]pyridine-3-carboxamide], 8.70; in that of `CC(C)n1nc(C(=O)NCc2ccc(NC(=O)N3CCC[C@H](N(C)C)C3)c(F)c2)c2c1[C@@H](C)CN(c1ccc(C(=O)N(C)C)cc1)C2` [Example 683, (S)-N-(4-((S)-3-(dimethylamino)piperidine-1-carboxamido)-3-fluorobenzyl)-5-(4-(dimethylcarbamoyl)phenyl)-1-isopropyl-7-methyl-4,5,6,7-tetrahydro-1H-pyrazolo[4,3-c]pyridine-3-carboxamide], 8.52.
In the case of `CCO[C@H]1CCN(C(=O)c2ccc(N3CCc4c(c(C(=O)NCc5ccc(NC(=O)N(C)C)cc5)nn4C(C)C)C3)nc2)C1` [Example 201, (S)-N-(4-(3,3-dimethylureido)benzyl)-5-(5-(3-ethoxypyrrolidine-1-carbonyl)pyridin-2-yl)-1-isopropyl-4,5,6,7-tetrahydro-1H-pyrazolo[4,3-c]pyridine-3-carboxamide], the pEC50 is 6.46.
In the case of `CC(C)n1nc(C(=O)NCc2ccc(NC(=O)N3CCC4(CC3)CN(C)C4)cc2)c2c1[C@@H](C)CN(c1ccc(C(=O)N(C)C)cc1)C2` [Example 742, (S)-5-(4-(dimethylcarbamoyl)phenyl)-1-isopropyl-7-methyl-N-(4-(2-methyl-2,7-diazaspiro[3.5]nonane-7-carboxamido)benzyl)-4,5,6,7-tetrahydro-1H-pyrazolo[4,3-c]pyridine-3-carboxamide] it was 9.00; in that of `CC(C)n1nc(C(=O)NCc2ccc(NC(=O)N(C)C)cc2)c2c1CCN(c1ccc(C(=O)N3CCC(O)C3)cn1)C2` (racemic) [Example 198, rac-(R)-N-(4-(3,3-dimethylureido)benzyl)-5-(5-(3-hydroxypyrrolidine-1-carbonyl)pyridin-2-yl)-1-isopropyl-4,5,6,7-tetrahydro-1H-pyrazolo[4,3-c]pyridine-3-carboxamide], 6.68.
In the case of `CC(C)n1nc(C(=O)NCc2ccc(NC(=O)N(C)C)cc2)c2c1[C@@H](C)CN(c1ccc(C(=O)N(C)C[C@H]3[C@@H]4CN(C)C[C@@H]43)cc1)C2` [Example 661, (S)-N-(4-(3,3-dimethylureido)benzyl)-1-isopropyl-7-methyl-5-(4-(methyl(((1R,5S,6r)-3-methyl-3-azabicyclo[3.1.0]hexan-6-yl)methyl)carbamoyl)phenyl)-4,5,6,7-tetrahydro-1H-pyrazolo[4,3-c]pyridine-3-carboxamide] it was 8.30.
As for `CC(C)n1nc(C(=O)NCc2ccc(NC(=O)N(C)C)cc2)c2c1CCN(c1ccc(C(=O)N3CCc4c(cnn4C)C3)cn1)C2` [Example 416, N-(4-(3,3-dimethylureido)benzyl)-1-isopropyl-5-(5-(1-methyl-4,5,6,7-tetrahydro-1H-pyrazolo[4,3-c]pyridine-5-carbonyl)pyridin-2-yl)-4,5,6,7-tetrahydro-1H-pyrazolo[4,3-c]pyridine-3-carboxamide], the pEC50 is 7.54.
In the case of `CC(C)n1nc(C(=O)NCc2ccc(NC(=O)N(C)C)cc2)c2c1[C@@H](C)CN(c1ccc(C(=O)N3CCN4CCC[C@@H]4C3)cc1)C2` [Example 675, (S)-N-(4-(3,3-dimethylureido)benzyl)-1-isopropyl-7-methyl-5-(4-((R)-octahydropyrrolo[1,2-a]pyrazine-2-carbonyl)phenyl)-4,5,6,7-tetrahydro-1H-pyrazolo[4,3-c]pyridine-3-carboxamide], the pEC50 is 7.47.
In the case of `CC(C)n1nc(C(=O)NCc2ccc(NC(=O)N(C)C)cc2)c2c1CCN(c1ccc(C(=O)N3Cc4cn(C)nc4C3)cn1)C2` [Example 385, N-(4-(3,3-dimethylureido)benzyl)-1-isopropyl-5-(5-(2-methyl-2,4,5,6-tetrahydropyrrolo[3,4-c]pyrazole-5-carbonyl)pyridin-2-yl)-4,5,6,7-tetrahydro-1H-pyrazolo[4,3-c]pyridine-3-carboxamide] it was 8.40.
In the case of `CC(C)n1nc(C(=O)NCc2ccc(NC(=O)N(C)C)cc2)c2c1CCN(c1ccc(C(=O)N3CCc4cnccc4C3)cn1)C2` [Example 434, N-(4-(3,3-dimethylureido)benzyl)-1-isopropyl-5-(5-(1,2,3,4-tetrahydro-2,6-naphthyridine-2-carbonyl)pyridin-2-yl)-4,5,6,7-tetrahydro-1H-pyrazolo[4,3-c]pyridine-3-carboxamide] it was 7.09; in that of `CC(C)n1nc(C(=O)NCc2ccc(NC(=O)N(C)C)cc2)c2c1CCN(c1ccc(C(=O)N3CC4CC(C3)C4O)cn1)C2` (stereo not drawn) [Example 243, N-(4-(3,3-dimethylureido)benzyl)-5-(5-(6-hydroxy-3-azabicyclo[3.1.1]heptane-3-carbonyl)pyridin-2-yl)-1-isopropyl-4,5,6,7-tetrahydro-1H-pyrazolo[4,3-c]pyridine-3-carboxamide], 5.78.
In the case of `CC(C)n1nc(C(=O)NCc2ccc(NC(=O)N(C)C)cc2)c2c1CCN(c1ccc(C(=O)N3CC[C@@H](C#N)C3)cn1)C2` [Example 297, (R)-5-(5-(3-cyanopyrrolidine-1-carbonyl)pyridin-2-yl)-N-(4-(3,3-dimethylureido)benzyl)-1-isopropyl-4,5,6,7-tetrahydro-1H-pyrazolo[4,3-c]pyridine-3-carboxamide] it was 6.65; in that of `Cc1nc2c(s1)CN(C(=O)c1ccc(N3CCc4c(c(C(=O)NCc5ccc(NC(=O)N(C)C)cc5)nn4C(C)C)C3)nc1)CC2` [Example 365, N-(4-(3,3-dimethylureido)benzyl)-1-isopropyl-5-(5-(2-methyl-4,5,6,7-tetrahydrothiazolo[5,4-c]pyridine-5-carbonyl)pyridin-2-yl)-4,5,6,7-tetrahydro-1H-pyrazolo[4,3-c]pyridine-3-carboxamide], 8.22.

The values above are taken from US20250320213A1, “Nitrogen-Containing Heterocyclic Compounds” (Pfizer Inc., priority 2024, published 2025).
